Type in all cases: functional
For experiment [1], the system named is Pseudomonas aeruginosa. The experiment is described as follows: Antibacterial activity against Pseudomonas aeruginosa ATCC 27853 a after 24 hrs by micro broth dilution assay. The following applies: ATCC 27853, 24 h. In general terms: In broth dilution the organism is exposed to a series of concentrations in liquid medium.
Experiment [2] concerns Escherichia coli. Kind of experiment: Antibacterial activity against Escherichia coli DH52 after 24 hrs by micro broth dilution assay. The following applies: DH52, 24 h.
Experiment [3] concerns Candida albicans. The experiment is described as follows: Antifungal activity against Candida albicans ATCC 10231 after 24 hrs by micro broth dilution assay. The following applies: ATCC 10231, 24 h.
Experiment [4] relates to Bacillus spizizenii. Kind of experiment: Antibacterial activity against Bacillus subtilis ATCC 6633 after 24 hrs by micro broth dilution assay. The following applies: ATCC 6633, 24 h.
In experiment [5] the test system is Staphylococcus aureus. The experiment is described as follows: Antibacterial activity against Staphylococcus aureus ATCC 25923 after 24 hrs by micro broth dilution assay. The following applies: ATCC 25923, 24 h.
Experiment [6] concerns Saccharomyces cerevisiae. Kind of experiment: Antifungal activity against Beer yeast ATCC 9763 after 24 hrs by micro broth dilution assay. The following applies: ATCC 9763, 24 h.
The subject of experiment [7] is Micrococcus luteus. Kind of experiment: Antibacterial activity against Micrococcus luteus ATCC 4698 after 24 hrs by micro broth dilution assay. The following applies: ATCC 4698, 24 h.
Experiment [8] has as its system Aspergillus flavus. The experiment is described as follows: Antifungal activity against Aspergillus flavus ATCC 204304 after 24 hrs by micro broth dilution assay. The following applies: ATCC 204304, 24 h.
The subject of experiment [9] is Staphylococcus aureus. The experiment is described as follows: Antibacterial activity against methicillin-resistant Staphylococcus aureus N315 after 24 hrs by micro broth dilution assay. The following applies: N315, 24 h.
In experiment [10] the test system is Bacillus sp. The experiment is described as follows: Antibacterial activity against Bacillus proteus ATCC 13315 after 24 hrs by micro broth dilution assay. The following applies: Bacillus sp. (in: firmicutes), ATCC 13315, 24 h.
In experiment [11] the test system is Candida. Kind of experiment: Antifungal activity against Candida mycoderma ATCC 9888 after 24 hrs by micro broth dilution assay. The following applies: ATCC 9888, 24 h.
Experiment [12] relates to Cyberlindnera jadinii. Kind of experiment: Antifungal activity against Candida utilis ATCC 9950 after 24 hrs by micro broth dilution assay. The following applies: Williopsis jadinii, ATCC 9950, 24 h.
A short description of experiment [13]: Antibacterial activity against Eberthella typhosa ATCC 14028 after 24 hrs by micro broth dilution assay. The following applies: ATCC 14028, 24 h.

What is called MIC is the smallest concentration in the dilution series that meets the test's criterion for growth inhibition. Lower therefore signals greater potency.

The structures appear in SMILES notation. In brackets after ≈: the same amount, converted by molar mass. Where only a bound is given, the exact number is not on record here.

In the case of `O=c1c2ccc(Cl)cc2ncn1CCBr`, the minimal inhibitory concentration (MIC) was over 1780 µM in experiment [1]; 1780 µM (≈ 512 µg/mL) in experiment [2]; over 1780 µM in experiment [3]; 1780 µM (≈ 512 µg/mL) in experiment [4]; over 1780 µM in experiment [5]; 890 µM (≈ 256 µg/mL) in experiment [6]. Further, the minimum inhibitory concentration (MIC) in experiment [7] is 450 µM (≈ 129 µg/mL); in [8], over 1780 µM; in experiment [9], 890 µM (≈ 256 µg/mL); in [10] it was 890 µM (≈ 256 µg/mL); in experiment [11], over 1780 µM; in experiment [12], 890 µM (≈ 256 µg/mL). Besides, the MIC in experiment [13] was over 1780 µM.

`Cc1ncc([N+](=O)[O-])n1CCCCCCCCCCn1cnc2cc(F)ccc2c1=O`: the minimal inhibitory concentration (MIC) in experiment [1] is over 1190 µM; in [2], 20 µM (≈ 8.59 µg/mL); in experiment [3], 40 µM (≈ 17.2 µg/mL); in experiment [4], 20 µM (≈ 8.59 µg/mL); in [5] it was 20 µM (≈ 8.59 µg/mL); in [6], 20 µM (≈ 8.59 µg/mL). For the same molecule, the MIC in experiment [7] was determined as 40 µM (≈ 17.2 µg/mL); in experiment [8] it was 40 µM (≈ 17.2 µg/mL); in experiment [9] it was 20 µM (≈ 8.59 µg/mL); in experiment [10] it was 20 µM (≈ 8.59 µg/mL); in experiment [11], 20 µM (≈ 8.59 µg/mL); in experiment [12], 20 µM (≈ 8.59 µg/mL). Further, the MIC in experiment [13] was found to be 20 µM (≈ 8.59 µg/mL).

Take `O=c1c2ccc(F)cc2ncn1CCn1cnc([N+](=O)[O-])c1`: the MIC in experiment [1] is over 1690 µM; in experiment [2] it was 840 µM (≈ 255 µg/mL); in experiment [3], 50 µM (≈ 15.2 µg/mL); in experiment [4] it was 50 µM (≈ 15.2 µg/mL); in experiment [5] it was 840 µM (≈ 255 µg/mL); in experiment [6] it was 210 µM (≈ 63.7 µg/mL). The minimum inhibitory concentration (MIC) in experiment [7] is 50 µM (≈ 15.2 µg/mL); in experiment [8], over 1690 µM; in experiment [9], 210 µM (≈ 63.7 µg/mL); in experiment [10], 420 µM (≈ 127 µg/mL); in experiment [11], 840 µM (≈ 255 µg/mL); in experiment [12], 420 µM (≈ 127 µg/mL). The molecule further displayed a minimal inhibitory concentration (MIC) in [13] of 420 µM (≈ 127 µg/mL).

`O=c1c2ccc(F)cc2ncn1CCCCCBr`: the minimum inhibitory concentration (MIC) was over 1630 µM in experiment [1]; 1630 µM (≈ 510 µg/mL) in [2]; 820 µM (≈ 257 µg/mL) in experiment [3]; 1630 µM (≈ 510 µg/mL) in experiment [4]; over 1630 µM in experiment [5]; 820 µM (≈ 257 µg/mL) in experiment [6]. The MIC in [7] is 410 µM (≈ 128 µg/mL); in [8], 820 µM (≈ 257 µg/mL); in experiment [9], 820 µM (≈ 257 µg/mL); in [10] it was 410 µM (≈ 128 µg/mL); in [11], over 1630 µM; in experiment [12] it was 410 µM (≈ 128 µg/mL). In experiment [13], this molecule displayed a minimal inhibitory concentration (MIC) of over 1630 µM.

For `O=c1c2ccc(F)cc2ncn1CCCCCCCCCCBr`, the MIC is over 1340 µM in experiment [1]; 1340 µM (≈ 514 µg/mL) in [2]; 670 µM (≈ 257 µg/mL) in experiment [3]; 1340 µM (≈ 514 µg/mL) in experiment [4]; over 1340 µM in [5]; 670 µM (≈ 257 µg/mL) in experiment [6]. The minimal inhibitory concentration (MIC) in [7] was 670 µM (≈ 257 µg/mL); in experiment [8] it was 1340 µM (≈ 514 µg/mL); in [9] it was 330 µM (≈ 126 µg/mL); in experiment [10] it was 330 µM (≈ 126 µg/mL); in experiment [11] it was over 1340 µM; in experiment [12] it was 330 µM (≈ 126 µg/mL). This molecule also displayed an MIC in experiment [13] of over 1340 µM.

With `O=c1c2ccc(F)cc2ncn1CCBr`, the MIC in experiment [1] was over 1890 µM; in [2], 1890 µM (≈ 512 µg/mL); in [3] it was 940 µM (≈ 255 µg/mL); in [4], 1890 µM (≈ 512 µg/mL); in experiment [5], over 1890 µM; in [6], 940 µM (≈ 255 µg/mL). For the same molecule, the minimum inhibitory concentration (MIC) is 470 µM (≈ 127 µg/mL) in experiment [7]; 1890 µM (≈ 512 µg/mL) in experiment [8]; 940 µM (≈ 255 µg/mL) in [9]; 470 µM (≈ 127 µg/mL) in experiment [10]; over 1890 µM in experiment [11]; 940 µM (≈ 255 µg/mL) in experiment [12]. In experiment [13], this molecule gave a minimum inhibitory concentration (MIC) of over 1890 µM.

Take `Cc1ncc([N+](=O)[O-])n1CCCCn1cnc2cc(Cl)ccc2c1=O`: the minimum inhibitory concentration (MIC) in [1] was over 1420 µM; in experiment [2], 40 µM (≈ 14.5 µg/mL); in experiment [3], 20 µM (≈ 7.24 µg/mL); in experiment [4], 40 µM (≈ 14.5 µg/mL); in experiment [5], 40 µM (≈ 14.5 µg/mL); in experiment [6], 40 µM (≈ 14.5 µg/mL). For the same molecule, the minimal inhibitory concentration (MIC) in experiment [7] was determined as 40 µM (≈ 14.5 µg/mL); in experiment [8] it was 40 µM (≈ 14.5 µg/mL); in experiment [9] it was 20 µM (≈ 7.24 µg/mL); in experiment [10] it was 20 µM (≈ 7.24 µg/mL); in experiment [11], 40 µM (≈ 14.5 µg/mL); in experiment [12], 20 µM (≈ 7.24 µg/mL). In addition, the MIC in experiment [13] turned out to be 20 µM (≈ 7.24 µg/mL).

As to `O=c1c2ccc(Cl)cc2ncn1CCCCBr`, the minimum inhibitory concentration (MIC) in experiment [1] was over 1620 µM; in experiment [2], 810 µM (≈ 256 µg/mL); in experiment [3], over 1620 µM; in experiment [4], 1620 µM (≈ 511 µg/mL); in experiment [5], over 1620 µM; in experiment [6], 810 µM (≈ 256 µg/mL). In addition, the MIC is 810 µM (≈ 256 µg/mL) in [7]; over 1620 µM in experiment [8]; 810 µM (≈ 256 µg/mL) in experiment [9]; 410 µM (≈ 129 µg/mL) in experiment [10]; over 1620 µM in experiment [11]; 410 µM (≈ 129 µg/mL) in experiment [12]. In experiment [13], this molecule displayed an MIC of over 1620 µM.

Source of the values: ChEMBL document CHEMBL3621068, “Synthesis and biological evaluation of a new class of quinazolinoneazoles as potential antimicrobial agents and their interactions with calf thymus DNA and human serum albumin” (Medchemcomm, 2015).
